The assay relates to TBI mouse model. The assay is described as follows: Controlled cortical impact TBI mouse model. The assay is classed as in vivo. The procedure: CD-1 (ICR) male mice (2-3 months old, 25-35 g body weight; DBL, Korea) were used in the TBI study. […] All mice were fed water and food ad libitum. In order to avoid and minimize transport-related stress, experiments were initiated after a period of one week following transport to allow the animals to acclimatize to environmental conditions.
An experimental controlled cortical impact (CCI) model for TBI was performed as follows. Using an isoflurane vaporizer (VetEquip), the mouse was deeply anesthetized with isoflurane inhaled at 3% in a mixture of 70:30 nitrous oxide and oxygen, and placed in a stereotaxic apparatus. […] An approximately 4 mm incision was made in the right hemisphere using a hand-held drill (midline 2 mm, bregma 1 mm). A controlled cortical impact device (Leica Impact One, Leica Biosystems) was used to accelerate an impact device equipped with a 2 mm flat-tip at a speed of 5 m/sec to a depth of 1.4 mm. […] Traumatic brain injury animal models were randomly generated according to an online randomization tool (randomizer.org). Sham-operated groups performed only craniotomy.
Control mice were intraperitoneally administered with the same volume of vehicle.
Mice were deeply anesthetized by intraperitoneal administration of a mixture of urethane (1.5 g/kg) in saline (0.9% NaCl) at 0.01 mL/g per body weight. The effect of anesthesia was assessed using a toe pinch. Subsequently, saline was perfused into the heart of the mouse, and PBS was mixed with 4% paraformaldehyde and then perfused. Brains were fixed in 4% paraformaldehyde for 1 h and immersed in 30% sucrose for cryoprotection. Then, whole brains were frozen and […] sections were formed on a cryostat microtome (CM1850, Leica) with a thickness of 30 μm.
After washing in PBS, sections were incubated overnight with a mouse monoclonal anti-NeuN antibody (1:500 dilution, Millipore) in PBS containing 0.3% Triton X-100 at 4° C. to assess neuronal loss after TBI. After washing with PBS, sections were incubated in biotinylated anti-mouse IgG (1:250 dilution, Vector) at room temperature for 2 hours […] to detect NeuN antibody and biotinylated anti-rat IgG (1:250 dilution, Vector) to examine the degree of leakage of endogenous immunoglobulin G. Then, the sections were immersed in an avidin-biotin-peroxidase complex (Vector) for 2 hours at room temperature. Between incubations, sections were washed with PBS. […] Immunoreactivity was observed under an Olympus IX70 inverted microscope.
Immunofluorescence labeling was performed according to a conventionally known general immunostaining procedure. […] After washing with PBS, the sections were incubated with each specific type of polyclonal or monoclonal primary antibody with PBS containing 0.3% Triton X-100 overnight at 4° C.
The primary antibodies used in this test are the same as follows: • mouse monoclonal anti-4-hydroxynonenal (4-HNE; diluted 1:500; Alpha Diagnostic International), • mouse monoclonal anti-Tau (Tau5; diluted 1:500; Abcam), • mouse monoclonal anti-phospho Tau (Ser202, Thr205; AT8; diluted 1:200; Invitrogen), • mouse monoclonal anti-PDI (diluted 1:100; Abcam), • rabbit polyclonal anti-ERp57 (diluted 1:100; Abcam), and • goat polyclonal anti-Iba-1 antibody (diluted 1:500; Abcam).
To count NeuN-positive cells, every sixth section was collected posterior to bregma from 1.2 to 2.1 mm at 180 μm intervals. Five coronal sections from each mouse were analyzed using a microscope with a 20×objective. These sections were then coded and provided to a blinded experimenter to count total NeuN-positive cells in hippocampal CA1 and cortex from hippocampal hemispheres. Data were expressed as the average number of NeuN-positive cells per area. To quantify the PDI-, ERp57-, Tau5-, AT8-, and 4HNE- immunofluorescence intensities, five coronal sections were evaluated by a blinded experimenter using ImageJ (National Institute of Health).

Setting [1] is: after TBI induction, versus vehicle.
Where [2] appears, read: ipsilateral perilesional cortex, 12 and 24 hours after TBI induction.

As for `CN(Cc1ccc(Cl)cc1)c1ncnc2c1[C@@H]1OC[C@H](CN2)N1S(=O)(=O)c1ccc([N+](=O)[O-])cc1` [Compound 117], where the note is “1, 4, 24, 48, 72 hours and 7 days after TBI”, the “neurologic severity score (NSS)” value is “maintained nerve protection activity”. Under setting [1], the “pole climbing test, time to descend the pole” value is on record as “significantly reduced” and the “pole climbing test, time to turn the head downward” value was “significantly reduced”. Also, the “level of microglial activation” value (ipsilateral hemisphere, after TBI) is “the activity of microglial cells was improved”. Also, for the setting “ipsilateral hippocampal CA1 and cortex, 24 hours after TBI, 5 mg/kg, 2 times a day”, the “total tau and p-tau levels (Tau5, AT8 immunofluorescence)” value is on record as “these symptoms were improved”. In addition, the “Iba-1 levels (neuroinflammation)” value (ipsilateral hippocampal CA1 and cortex, 72 hours after TBI) is recorded as “could be improved”. The “ER stress and oxidative stress (PDI, ERp57 immunofluorescence)” value (ipsilateral hippocampal CA1 and cortex, 5 mg/kg, 2 times a day) was “these symptoms were confirmed”. Also, under setting [2], the “conversion rate from LC3-1 to LC3-II (Western blotting)” value is “the conversion rate from LC3-1 to LC3-II was improved” and the “p62 protein level (Western blotting)” value is given as “an increase in p62 protein level”.

For the origin of these results see patent publication US20230322805A1, “NOVEL PYRIMIDODIAZEPINE DERIVATIVES OR USES THEREOF” (SPARK BIOPHARMA, INC., priority 2020, published 2023).
